# Values of other authors as cited in patent US20120028902A1, “PEPTIDE AVAILABILITY” (priority 2008, published 2012).
structure (smiles),measurement,setting,value
"CC[C@H](C)[C@H](N)C(=O)N1CCC[C@H]1C(=O)N1CCC[C@H]1C(=O)O [IPP, isoleucine-proline-proline]",Further increase of plasma IPP AUC when consumed with the meal,"yoghurt drink consumed with breakfast, versus fasted state",30%
same,Increase of plasma IPP level (area under the concentration vs. time curve) compared to a control drink,yoghurt drink drunk in overnight fasted state 30 min prior to breakfast,more than two-fold
